Laboratory results from US12660819B2, “Herbicidal derivatives” (SYNGENTA CROP PROTECTION AG, priority 2020, dated 2026).

What was measured:
Type in all cases: in vivo
[1] = tested on: Echinochloa crus-galli (ECHCG); test: Pre-emergence Test (glasshouse, percentage damage to the plant); conditions: 1000 g/ha unless otherwise stated, five-point scale
[2] = tested on: Amaranthus retoflexus (AMARE); test: as above; conditions: 1000 g/ha unless otherwise stated, five-point scale
Zea mays (ZEAMX) [3] = test: as above; conditions: 1000 g/ha unless otherwise stated, five-point scale
[4] = tested on: Abutilon theophrasti (ABUTH); test: Post-emergence Test (glasshouse, percentage damage to the plant); conditions: post-emergence spray, 1000 g/ha unless otherwise stated, evaluated after 13 days
Summary of the method: (§1)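 After sowing in standard soil, pots were kept at 24/16 °C (day/night), 14 h light and 65% humidity. They were sprayed at 1000 g/ha unless otherwise stated, watered twice daily, and assessed for percentage damage at 13 days on a 1–5 scale.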

Setaria faberi (SETFA) [5] = test: as above; conditions: post-emergence spray, 1000 g/ha unless otherwise stated, evaluated after 13 days
Summary of the method: (§2)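 Sown pots; spray 1000 g/ha (unless stated) in acetone/water 50:50 + 0.5% Tween 20; glasshouse 24/16 °C, 14 h light, 65% RH; watered twice daily; % damage read at 13 days, scored 1–5.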

Zea mays (ZEAMX) [6] = test: as above; conditions: post-emergence spray, 1000 g/ha unless otherwise stated, evaluated after 13 days
Summary of the method: as §2

[7] = tested on: Amaranthus retoflexus (AMARE); test: as above; conditions: post-emergence spray, 1000 g/ha unless otherwise stated, evaluated after 13 days
Summary of the method: as §1

[8] = tested on: Echinochloa crus-galli (ECHCG); test: as above; conditions: post-emergence spray, 1000 g/ha unless otherwise stated, evaluated after 13 days
Summary of the method: as §1

[9] = tested on: Ipomoea hederacea (IPOHE); test: as above; conditions: post-emergence spray, 1000 g/ha unless otherwise stated, evaluated after 13 days
Summary of the method: as §2

[10] = tested on: Ipomoea hederacea (IPOHE); test: Pre-emergence Test (glasshouse, percentage damage to the plant); conditions: 1000 g/ha unless otherwise stated, five-point scale
Setaria faberi (SETFA) [11] = test: as above; conditions: 1000 g/ha unless otherwise stated, five-point scale
[12] = tested on: Abutilon theophrasti (ABUTH); test: as above; conditions: 1000 g/ha unless otherwise stated, five-point scale

SMILES	percentage damage to the plant, ECHCG [1]	percentage damage to the plant, AMARE [2]	percentage damage to the plant, ZEAMX (Zea mays (ZEAMX) [3])	Post-emergence Test ABUTH, percentage damage to the plant (five-point scale) [4]	Post-emergence Test SETFA, percentage damage to the plant (five-point scale) (Setaria faberi (SETFA) [5])	Post-emergence Test ZEAMX, percentage damage to the plant (five-point scale) (Zea mays (ZEAMX) [6])	Post-emergence Test AMARE, percentage damage to the plant (five-point scale) [7]	Post-emergence Test ECHCG, percentage damage to the plant (five-point scale) [8]	Post-emergence Test IPOHE, percentage damage to the plant (five-point scale) [9]	percentage damage to the plant, IPOHE [10]	percentage damage to the plant, SETFA (Setaria faberi (SETFA) [11])	percentage damage to the plant, ABUTH [12]
CCn1c(C)c(-c2ccc(C(C)(C)C)cc2)c(=O)c(C(=O)O)c1-c1ccc(Cl)c(Cl)c1 [Compound 55, 5-(4-tert-butylphenyl)-2-(3,4-dichlorophenyl)-1-ethyl-6-methyl-4-oxo-pyridine-3-carboxylic acid]	1 (1=0-20%)	1 (1=0-20%)	1 (1=0-20%)	1 (1=0-20%)	1 (1=0-20%)	1 (1=0-20%)	1 (1=0-20%)	1 (1=0-20%)	1 (1=0-20%)	1 (1=0-20%)	1 (1=0-20%)	1 (1=0-20%)
CCn1c(C)c(-c2cc(Cl)cc(Cl)c2)c(=O)c(C(=O)O)c1-c1ccc(Cl)c(Cl)c1 [Compound 56, 2-(3,4-dichlorophenyl)-5-(3,5-dichlorophenyl)-1-ethyl-6-methyl-4-oxo-pyridine-3-carboxylic acid]	1 (1=0-20%)	1 (1=0-20%)	1 (1=0-20%)	1 (1=0-20%)	1 (1=0-20%)	1 (1=0-20%)	1 (1=0-20%)	1 (1=0-20%)	1 (1=0-20%)	1 (1=0-20%)	1 (1=0-20%)	1 (1=0-20%)
CCn1c(C)c(-c2ccc(Cl)c(C#N)c2)c(=O)c(C(=O)O)c1-c1ccc(Cl)c(Cl)c1 [Compound 57, 5-(4-chloro-3-cyano-phenyl)-2-(3,4-dichlorophenyl)-1-ethyl-6-methyl-4-oxo-pyridine-3-carboxylic acid]	3 (3=41-60%)	3 (3=41-60%)	2 (2=21-40%)	3 (3=41-60%)	4 (4=61-80%)	2 (2=21-40%)	4 (4=61-80%)	3 (3=41-60%)	2 (2=21-40%)	2 (2=21-40%)	4 (4=61-80%)	1 (1=0-20%)
CCn1c(C)c(-c2ccn(C)c(=O)c2)c(=O)c(C(=O)O)c1-c1ccc(Cl)c(Cl)c1 [Compound 58, 2-(3,4-dichlorophenyl)-1-ethyl-6-methyl-5-(1-methyl-2-oxo-4-pyridyl)-4-oxo-pyridine-3-carboxylic acid]	1 (1=0-20%)	1 (1=0-20%)	1 (1=0-20%)	1 (1=0-20%)	1 (1=0-20%)	1 (1=0-20%)	1 (1=0-20%)	1 (1=0-20%)	1 (1=0-20%)	1 (1=0-20%)	1 (1=0-20%)	1 (1=0-20%)
CCn1c(C)c(-c2cnc(F)c(F)c2)c(=O)c(C(=O)O)c1-c1ccc(Cl)c(Cl)c1 [Compound 59, 2-(3,4-dichlorophenyl)-5-(5,6-difluoro-3-pyridyl)-1-ethyl-6-methyl-4-oxo-pyridine-3-carboxylic acid]	2 (2=21-40%)	1 (1=0-20%)	1 (1=0-20%)	3 (3=41-60%)	4 (4=61-80%)	3 (3=41-60%)	3 (3=41-60%)	3 (3=41-60%)	3 (3=41-60%)	3 (3=41-60%)	4 (4=61-80%)	3 (3=41-60%)
CCn1c(C)c(-c2cnc3c(c2)OC(F)(F)O3)c(=O)c(C(=O)O)c1-c1ccc(Cl)c(Cl)c1 [Compound 60, 2-(3,4-dichlorophenyl)-5-(2,2-difluoro-[1,3]dioxolo[4,5-b]pyridin-6-yl)-1-ethyl-6-methyl-4-oxo-pyridine-3-carboxylic acid]	2 (2=21-40%)	2 (2=21-40%)	1 (1=0-20%)	2 (2=21-40%)	4 (4=61-80%)	1 (1=0-20%)	2 (2=21-40%)	3 (3=41-60%)	2 (2=21-40%)	2 (2=21-40%)	4 (4=61-80%)	3 (3=41-60%)
CCn1c(C)c(-c2cncc(OC)c2)c(=O)c(C(=O)O)c1-c1ccc(Cl)c(Cl)c1 [Compound 61, 2-(3,4-dichlorophenyl)-1-ethyl-5-(5-methoxy-3-pyridyl)-6-methyl-4-oxo-pyridine-3-carboxylic acid]	1 (1=0-20%)	1 (1=0-20%)	1 (1=0-20%)	2 (2=21-40%)	3 (3=41-60%)	1 (1=0-20%)	1 (1=0-20%)	1 (1=0-20%)	1 (1=0-20%)	1 (1=0-20%)	4 (4=61-80%)	2 (2=21-40%)
CCn1c(C)c(-c2cc(F)cc(Cl)c2)c(=O)c(C(=O)O)c1-c1ccc(Cl)c(Cl)c1 [Compound 62, 5-(3-chloro-5-fluoro-phenyl)-2-(3,4-dichlorophenyl)-1-ethyl-6-methyl-4-oxo-pyridine-3-carboxylic acid]	1 (1=0-20%)	1 (1=0-20%)	1 (1=0-20%)	2 (2=21-40%)	1 (1=0-20%)	1 (1=0-20%)	1 (1=0-20%)	1 (1=0-20%)	2 (2=21-40%)	1 (1=0-20%)	2 (2=21-40%)	1 (1=0-20%)
